{"source": "patent US20030153618A1", "about": "“Treatment and prevention of herpes simplex infections” (priority 1999, published 2003)", "key": {"Herpes simplex II virus": {"tested_on": "Herpes simplex II virus", "assay": "Back titration plaque assay: PFU counts at stated amounts of compound under test and arginine", "type": "cell-based, Herpes simplex II virus (BSC cells)", "procedure": "The following experiments were conducted by back titration: Herpes simplex II virus from laboratory stocks was used. BSC cells were grown to confluence in Eagles medium with 15% fetal calf serum, 150 units per milliliter of penicillin and 100 micrograms per milliliter of streptomycin. The cultures were inoculated with 500 PFU of HS II. The virons were allowed to absorb for one hour at 25° C. The tissue cultures were then washed three times with sterile PBS to remove excess media and non-absorbed virons. The cells were then incubated at 37° C. until four-plus cytopathic effects were observed. The cells were then disrupted by slow freeze-thaw two times. The suspension was then clarified by slow speed centrifugation at 4° C. The supemanant suspension was then added to confluent BSC cultures. After one hour absorption, the cells were washed with PBS twice. The cells were overlaid in defined reagent (in triplicate) Eagles media in noble agar. The cells were then incubated at 37° C. until the plaques were easily counted, usually 40 t 72 hours. the cells were then washed two times with PBS and then fixed with 10% H2CO and a 2% sodium acetate. The cells were then stained in 0.1% crystal violet in ethanol. In the tables which follow the concentration of the compound to be tested, in micrograms per milliliter, is listed across the top of the table and the concentration of arginine in micrograms per milliliter is listed down the left side of the table, the count of plaque-forming units being shown in the matrix."}, "HSV, Type II": {"tested_on": "HSV, Type II", "assay": "Direct plaque-forming unit (PFU) count in BSC cells in defined media with set lysine (or derivative):arginine ratio", "type": "cell-based", "details": "average of three tests", "procedure": "Absorbed virons were absorbed in susceptible cells in chemically defined media and the number of plaques made were counted. (See Davis, B. D., et al., Microbiology, 2nd Ed., Harper & Row, 1973, Part V, and sources cited therein for procedural details and discussion of the plaque method.)\nThe cell line chosen was green monkey kidney cells (BSC) that have been passed greater than 41 times. […] The virons were added to a confluent lawn of BSC cells and allowed to absorb at 25° C. for one hour. The unabsorbed virons and the media were removed by washing three times in PBS. […] The control media contained a lysine/arginine ratio of 1:1. The plaques were counted when easily readable. Flasks are done in triplicate."}}, "data": [{"smiles": "CC(N)CCCC(N)C(=O)O", "note": "(stereo not shown) [6-Methyl lysine]", "values": [{"measurement": "order of blocking the arginine molecule (rank of efficacy)", "setting": "Herpes simplex II virus; among the tested derivatives", "result": "third most efficacious"}, {"measurement": "P.F.U. Count", "setting": "Herpes simplex II virus; compound 10 μg/ml, arginine 0 μg/ml", "result": 0}, {"measurement": "P.F.U. Count", "setting": "Herpes simplex II virus; compound 10 μg/ml, arginine 2.5 μg/ml", "result": 0}, {"measurement": "P.F.U. Count", "setting": "Herpes simplex II virus; compound 10 μg/ml, arginine 5.0 μg/ml", "result": 0}, {"measurement": "P.F.U. Count", "setting": "Herpes simplex II virus; compound 10 μg/ml, arginine 7.5 μg/ml", "result": 0}, {"measurement": "P.F.U. Count", "setting": "Herpes simplex II virus; compound 10 μg/ml, arginine 10 μg/ml", "result": "4.0 × 10^3"}, {"measurement": "P.F.U. Count", "setting": "Herpes simplex II virus; compound 10 μg/ml, arginine 15 μg/ml", "result": "1.8 × 10^3"}, {"measurement": "P.F.U. Count", "setting": "Herpes simplex II virus; compound 10 μg/ml, arginine 20 μg/ml", "result": "2.8 × 10^6"}, {"measurement": "P.F.U. Count", "setting": "Herpes simplex II virus; compound 10 μg/ml, arginine 25 μg/ml", "result": "2.7 × 10^5"}, {"measurement": "P.F.U. Count", "setting": "Herpes simplex II virus; compound 25 μg/ml, arginine 0 μg/ml", "result": 0}, {"measurement": "P.F.U. Count", "setting": "Herpes simplex II virus; compound 25 μg/ml, arginine 2.5 μg/ml", "result": 0}, {"measurement": "P.F.U. Count", "setting": "Herpes simplex II virus; compound 25 μg/ml, arginine 5.0 μg/ml", "result": 0}, {"measurement": "P.F.U. Count", "setting": "Herpes simplex II virus; compound 25 μg/ml, arginine 7.5 μg/ml", "result": 0}, {"measurement": "P.F.U. Count", "setting": "Herpes simplex II virus; compound 25 μg/ml, arginine 10 μg/ml", "result": "2.1 × 10^3"}, {"measurement": "P.F.U. Count", "setting": "Herpes simplex II virus; compound 25 μg/ml, arginine 15 μg/ml", "result": "2.1 × 10^3"}, {"measurement": "P.F.U. Count", "setting": "Herpes simplex II virus; compound 25 μg/ml, arginine 20 μg/ml", "result": "2.4 × 10^5"}, {"measurement": "P.F.U. Count", "setting": "Herpes simplex II virus; compound 25 μg/ml, arginine 25 μg/ml", "result": "2.9 × 10^5"}, {"measurement": "P.F.U. Count", "setting": "Herpes simplex II virus; compound 50 μg/ml, arginine 0 μg/ml", "result": 0}, {"measurement": "P.F.U. Count", "setting": "Herpes simplex II virus; compound 50 μg/ml, arginine 2.5 μg/ml", "result": 0}, {"measurement": "P.F.U. Count", "setting": "Herpes simplex II virus; compound 50 μg/ml, arginine 5.0 μg/ml", "result": 0}, {"measurement": "P.F.U. Count", "setting": "Herpes simplex II virus; compound 50 μg/ml, arginine 7.5 μg/ml", "result": 0}, {"measurement": "P.F.U. Count", "setting": "Herpes simplex II virus; compound 50 μg/ml, arginine 10 μg/ml", "result": 0}, {"measurement": "P.F.U. Count", "setting": "Herpes simplex II virus; compound 50 μg/ml, arginine 15 μg/ml", "result": "1.7 × 10^3"}, {"measurement": "P.F.U. Count", "setting": "Herpes simplex II virus; compound 50 μg/ml, arginine 20 μg/ml", "result": "1.7 × 10^5"}, {"measurement": "P.F.U. Count", "setting": "Herpes simplex II virus; compound 50 μg/ml, arginine 25 μg/ml", "result": "2.0 × 10^5"}, {"measurement": "P.F.U. Count", "setting": "Herpes simplex II virus; compound 100 μg/ml, arginine 0 μg/ml", "result": 0}, {"measurement": "P.F.U. Count", "setting": "Herpes simplex II virus; compound 100 μg/ml, arginine 2.5 μg/ml", "result": 0}, {"measurement": "P.F.U. Count", "setting": "Herpes simplex II virus; compound 100 μg/ml, arginine 5.0 μg/ml", "result": 0}, {"measurement": "P.F.U. Count", "setting": "Herpes simplex II virus; compound 100 μg/ml, arginine 7.5 μg/ml", "result": 0}, {"measurement": "P.F.U. Count", "setting": "Herpes simplex II virus; compound 100 μg/ml, arginine 10 μg/ml", "result": 0}, {"measurement": "P.F.U. Count", "setting": "Herpes simplex II virus; compound 100 μg/ml, arginine 15 μg/ml", "result": 0}, {"measurement": "P.F.U. Count", "setting": "Herpes simplex II virus; compound 100 μg/ml, arginine 20 μg/ml", "result": "6.4 × 10^4"}, {"measurement": "P.F.U. Count", "setting": "Herpes simplex II virus; compound 100 μg/ml, arginine 25 μg/ml", "result": "5.8 × 10^4"}, {"measurement": "P.F.U. Count", "setting": "Herpes simplex II virus; compound 200 μg/ml, arginine 0 μg/ml", "result": 0}, {"measurement": "P.F.U. Count", "setting": "Herpes simplex II virus; compound 200 μg/ml, arginine 2.5 μg/ml", "result": 0}, {"measurement": "P.F.U. Count", "setting": "Herpes simplex II virus; compound 200 μg/ml, arginine 5.0 μg/ml", "result": 0}, {"measurement": "P.F.U. Count", "setting": "Herpes simplex II virus; compound 200 μg/ml, arginine 7.5 μg/ml", "result": 0}, {"measurement": "P.F.U. Count", "setting": "Herpes simplex II virus; compound 200 μg/ml, arginine 10 μg/ml", "result": 0}, {"measurement": "P.F.U. Count", "setting": "Herpes simplex II virus; compound 200 μg/ml, arginine 15 μg/ml", "result": 0}, {"measurement": "P.F.U. Count", "setting": "Herpes simplex II virus; compound 200 μg/ml, arginine 20 μg/ml", "result": "6.9 × 10^4"}, {"measurement": "P.F.U. Count", "setting": "Herpes simplex II virus; compound 200 μg/ml, arginine 25 μg/ml", "result": "4.7 × 10^4"}, {"measurement": "P.F.U. Count", "setting": "Herpes simplex II virus; compound 300 μg/ml, arginine 0 μg/ml", "result": 0}, {"measurement": "P.F.U. Count", "setting": "Herpes simplex II virus; compound 300 μg/ml, arginine 2.5 μg/ml", "result": 0}, {"measurement": "P.F.U. Count", "setting": "Herpes simplex II virus; compound 300 μg/ml, arginine 5.0 μg/ml", "result": 0}, {"measurement": "P.F.U. Count", "setting": "Herpes simplex II virus; compound 300 μg/ml, arginine 7.5 μg/ml", "result": 0}, {"measurement": "P.F.U. Count", "setting": "Herpes simplex II virus; compound 300 μg/ml, arginine 10 μg/ml", "result": 0}, {"measurement": "P.F.U. Count", "setting": "Herpes simplex II virus; compound 300 μg/ml, arginine 15 μg/ml", "result": 0}, {"measurement": "P.F.U. Count", "setting": "Herpes simplex II virus; compound 300 μg/ml, arginine 20 μg/ml", "result": "5.0 × 10^3"}, {"measurement": "P.F.U. Count", "setting": "Herpes simplex II virus; compound 300 μg/ml, arginine 25 μg/ml", "result": "4.0 × 10^4"}, {"measurement": "P.F.U. Count", "setting": "Herpes simplex II virus; compound 400 μg/ml, arginine 0 μg/ml", "result": 0}, {"measurement": "P.F.U. Count", "setting": "Herpes simplex II virus; compound 400 μg/ml, arginine 2.5 μg/ml", "result": 0}, {"measurement": "P.F.U. Count", "setting": "Herpes simplex II virus; compound 400 μg/ml, arginine 5.0 μg/ml", "result": 0}, {"measurement": "P.F.U. Count", "setting": "Herpes simplex II virus; compound 400 μg/ml, arginine 7.5 μg/ml", "result": 0}, {"measurement": "P.F.U. Count", "setting": "Herpes simplex II virus; compound 400 μg/ml, arginine 10 μg/ml", "result": 0}, {"measurement": "P.F.U. Count", "setting": "Herpes simplex II virus; compound 400 μg/ml, arginine 15 μg/ml", "result": 0}, {"measurement": "P.F.U. Count", "setting": "Herpes simplex II virus; compound 400 μg/ml, arginine 20 μg/ml", "result": 690}, {"measurement": "P.F.U. Count", "setting": "Herpes simplex II virus; compound 400 μg/ml, arginine 25 μg/ml", "result": "3.9 × 10^3"}, {"measurement": "P.F.U. Count", "setting": "Herpes simplex II virus; compound 500 μg/ml, arginine 0 μg/ml", "result": 0}, {"measurement": "P.F.U. Count", "setting": "Herpes simplex II virus; compound 500 μg/ml, arginine 2.5 μg/ml", "result": 0}, {"measurement": "P.F.U. Count", "setting": "Herpes simplex II virus; compound 500 μg/ml, arginine 5.0 μg/ml", "result": 0}, {"measurement": "P.F.U. Count", "setting": "Herpes simplex II virus; compound 500 μg/ml, arginine 7.5 μg/ml", "result": 0}, {"measurement": "P.F.U. Count", "setting": "Herpes simplex II virus; compound 500 μg/ml, arginine 10 μg/ml", "result": 0}, {"measurement": "P.F.U. Count", "setting": "Herpes simplex II virus; compound 500 μg/ml, arginine 15 μg/ml", "result": 0}, {"measurement": "P.F.U. Count", "setting": "Herpes simplex II virus; compound 500 μg/ml, arginine 20 μg/ml", "result": 56}, {"measurement": "P.F.U. Count", "setting": "Herpes simplex II virus; compound 500 μg/ml, arginine 25 μg/ml", "result": "3.71 × 10^3"}, {"measurement": "P.F.U. Count", "setting": "HSV, Type II; Compound Ratio to Arginine 10:1", "result": "<5"}, {"measurement": "P.F.U. Count", "setting": "HSV, Type II; Compound Ratio to Arginine 100:1", "result": "<5"}]}]}
